According to patent publication US7247438B1, “Methods of identifying agents which enhance caspase activity” (priority 1997, dated 2007):
Entries after “also recorded” stand apart in the source; their conditions may differ. Peptide text beside a SMILES is read from it. * marks the point of attachment. Cbz = O=C(OCc1ccccc1)*; CH2F = FC*

How the values were obtained:
[1] = system: thymic caspase (~17 kD subunit); assay: Western blot of thymic lysates: binding of biotinylated substrate to activated thymic caspase and competition; set-up: species or system mouse; conditions: for blocking of biotin-DEVDamk binding to the antigen-activated caspase: pretreatment of thymic lysates with excess (100-fold molar, FIG. 2D) of inhibitor
[2] = system: CD4+ CD8+ DP thymocytes in FTOC of C57BL/6 mice; assay: glucocorticoid (dexamethasone)-induced DP thymocyte death in FTOC, FACS analysis; assay type: cell-based, mouse
[3] = system: Drosophila Schneider cells; conditions: added to Drosophila Schneider cells; cited from earlier work
[4] = system: CD4+ CD8+ DP thymocytes in FTOC of C57BL/6 mice; assay: anti-CD3ε mAb (2C11)-induced deletion of DP thymocytes in FTOC, FACS analysis; assay type: cell-based, mouse; set-up: effect on anti-CD3ε (2C11) mAb-induced deletion of DP thymocytes: dose or concentration left out as unconfirmed
[5] = system: Rat thymocytes in suspension; conditions: cited from earlier work
[6] = system: thymocytes in N15 tg RAG-2−/− H-2b FTOC; assay type: cell-based, mouse
[7] = system: DP thymocytes in FTOC of N15 TCR tg RAG-2−/− H-2b mice; assay type: cell-based, mouse; conditions: for effect on antigen (VSV8)-induced depletion of DP thymocytes: N15 FTOC, 2 hours with 100 μM inhibitor followed by 18 hours with 10 μM VSV8
[8] = system: activated thymic caspase in N15 tg RAG-2−/− H-2b FTOC; assay type: cell-based, mouse; conditions: for effect of pretreatment on VSV8-induced caspase activation (biotin-DEVDamk staining): FTOC, inhibitor pretreatment, then VSV8 4 hours
[9] = molecular target: T1, caspase-1 (Homo sapiens, UniProt P29466); conditions: caspase-1 versus caspase-3; cited from earlier work
T1 sequence (P29466 120-297 limits assumed): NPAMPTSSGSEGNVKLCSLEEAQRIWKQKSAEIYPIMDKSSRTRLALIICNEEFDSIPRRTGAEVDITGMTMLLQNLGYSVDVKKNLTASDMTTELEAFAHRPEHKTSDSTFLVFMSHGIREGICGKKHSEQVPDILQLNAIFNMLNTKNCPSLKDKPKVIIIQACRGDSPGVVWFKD
T1 sequence (P29466 317-404 limits assumed): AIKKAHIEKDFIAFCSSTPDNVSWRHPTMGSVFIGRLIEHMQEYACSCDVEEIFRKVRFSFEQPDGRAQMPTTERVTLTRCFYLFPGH

[10] = molecular target: T2, recombinant Mch2a (caspase-6) (Homo sapiens, UniProt P55212); assay: Western blot: binding of biotinylated substrate to recombinant Mch2a; conditions: FIG. 2B; 15 minutes with 2 mM biotin-DEVDamk
T2 construct: made in house
T2 sequence (P55212 24-179 limits assumed): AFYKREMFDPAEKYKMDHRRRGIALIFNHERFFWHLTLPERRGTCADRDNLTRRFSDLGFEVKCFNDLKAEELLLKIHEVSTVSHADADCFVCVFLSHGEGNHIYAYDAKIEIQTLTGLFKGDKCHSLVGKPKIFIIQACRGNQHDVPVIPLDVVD
T2 sequence (P55212 194-293 limits assumed): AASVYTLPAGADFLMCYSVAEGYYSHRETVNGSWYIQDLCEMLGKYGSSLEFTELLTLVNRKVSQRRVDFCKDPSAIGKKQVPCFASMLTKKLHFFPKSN

[11] = molecular target: T3, recombinant Yama/caspase-3 (Homo sapiens, UniProt P42574); assay: Western blot: binding of biotinylated substrate to recombinant Yama; conditions: FIG. 2B; 15 minutes with 2 mM biotin-DEVDamk
T3 construct: made in house
T3 sequence (P42574 29-175 limits assumed): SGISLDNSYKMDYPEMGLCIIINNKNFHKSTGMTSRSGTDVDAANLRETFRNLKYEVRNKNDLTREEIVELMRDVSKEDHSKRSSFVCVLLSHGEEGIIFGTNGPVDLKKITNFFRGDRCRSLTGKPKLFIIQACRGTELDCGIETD
T3 sequence (P42574 176-277 limits assumed): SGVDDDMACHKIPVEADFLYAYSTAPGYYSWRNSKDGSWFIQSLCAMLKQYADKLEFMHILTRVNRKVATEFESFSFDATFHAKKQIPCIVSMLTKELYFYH

[12] = system: activated thymic caspase in adult N15 tg RAG-2−/− H-2b mice; conditions: mouse, in vivo
[13] = system: thymocytes in non-tg RAG-2−/− FTOC; assay type: cell-based, mouse
[14] = system: thymic caspase; assay: caspase activation in thymic lysates of adult mice after tail vein peptide injection (Western blot); conditions: mouse, in vivo

For `COC(=O)C[C@H](NC(=O)[C@H](C)NC(=O)[C@@H](NC(=O)OCc1ccccc1)C(C)C)C(=O)CF` [zVADfmk, N-benzyloxycarbonyl-Val-Ala-Asp-fluoromethylketone, b-methyl ester] (Cbz-Val-Ala-Asp(OMe)-CH2F), the “blocking of biotin-DEVDamk binding to the antigen-activated caspase” value [1] is given as “blocks binding; also recorded: prevents binding”, the “effect on dexamethasone (glucocorticoid)-induced death/deletion of DP thymocytes” value ([2]; 2-hour pretreatment with 100 μM zVADfmk) is given as “protects; also recorded: blocked” and the “effect on apoptosis induced by expression of REAPER protein” value [3] is given as “blocks the induction of apoptosis”. The “effect on anti-CD3ε (2C11) mAb-induced deletion of DP thymocytes” value ([4]; 2-hour preincubation, harvested 18 hours later) was “inhibited; also recorded: blocked”, the “effect of agent alone on percentage of DP thymocytes in FTOC” value ([4]; FTOC C57BL/6, no 2C11) was “does not alter” and the “effect on glucocorticoid-induced death” value [5] was “blocked”. The “number of TdT (TUNEL) positive apoptotic cells in histological sections (in words)” value (from here on “number … in histological sections (in words)”) [6] was “reduces the number of TdT+ cells to that of the control; also recorded: blocked”, the “effect on antigen (VSV8)-induced depletion of DP thymocytes” value [7] was “completely blocks; also recorded: blocked; also recorded: blocks depletion” and the “effect of pretreatment on VSV8-induced caspase activation (biotin-DEVDamk staining)” value [8] was “blocked”.

In the case of FAPGNYPAL [SEV9], the “depletion/death of DP thymocytes induced by peptide (in words)” value [7] is reported as “does not result in thymocyte death”.

In the case of `CC(=O)N[C@@H](Cc1ccc(O)cc1)C(=O)N[C@H](C(=O)N[C@@H](C)C(=O)N[C@H](C=O)CC(=O)O)C(C)C` [Ac-YVAD-CHO], the “fold lower concentration to inhibit caspase-1 than required to inhibit caspase-3” value [9] is listed as ~10,000 fold.

In the case of `C[C@@H]1C[C@H]2[C@@H]3CCC4=CC(=O)C=C[C@]4(C)[C@@]3(F)[C@@H](O)C[C@]2(C)[C@@]1(O)C(=O)CO` [Dexamethasone], the “percentage of DP thymocytes” value ([2]; FTOC, control 74%) is reported as 19%.

With `COC(=O)CC(NC(=O)C(C)NC(=O)C(NC(=O)OCc1ccccc1)C(C)C)C(C)=O` (centres unmarked) [zVADmk, N-(Z-Valinylalanyl)aspartic acid methyl ketone, b-methyl ester] the “blocking of biotin-DEVDamk binding to the antigen-activated caspase” value [1] was “does not block”, the “number … in histological sections (in words)” value [6] was “levels of TdT positive cells similar to cultures treated with VSV8 alone; also recorded: no effect” and the “effect on antigen (VSV8)-induced depletion of DP thymocytes” value [7] was “has no effect; also recorded: fails to block”. For the same molecule, the “effect of pretreatment on VSV8-induced caspase activation (biotin-DEVDamk staining)” value [8] was “not”.

For `Cc1cccc(C)c1C(=O)OCC(=O)C(CC(=O)O)NC(=O)[C@@H](NC(=O)[C@H](CCC(=O)O)NC(=O)[C@H](CC(=O)O)NC(=O)CCCC[C@@H]1SC[C@@H]2NC(=O)N[C@@H]21)C(C)C` (some centres unmarked) [biotin-DEVDamk, N-(Biotinylaspartylglutamylvalinyl)aspartic acid [(2,6-Dimethylbenzoyl)oxy]methyl Ketone], the “detection of / affinity for the activated thymic caspase by biotinylated substrate” value [1] was “highest affinity”, the “binding of biotinylated substrate to recombinant Mch2a (caspase-6)” value [10] was “bind” and the “binding of biotinylated substrate to recombinant Yama/caspase-3” value [11] was “bind”.

For RGYVYQGL [VSV8], the “biotin-DEVDamk staining of thymic sections” value [12] was “widespread biotin-DEVDamk staining”, the “TdT positive cells mm2, N15tg #1” value [6] was 429 mm2 and the “TdT positive cells mm2, N15tg #2” value [6] was 456 mm2. For the same molecule, the “TdT positive cells mm2, N15tg #3” value [6] was 441 mm2, the “number … in histological sections (in words)” value [6] was “obvious increase” and the “TdT positive cells mm2, non-tg” value [13] was 9 mm2. For the same molecule, the “depletion/death of DP thymocytes induced by peptide (in words)” value [7] was “massive depletion”, the “percent CD4+ CD8+ DP thymocytes” value [7] was 21 and the “time to induction of an active caspase after tail vein injection” value [14] was no more than 2 h. For the same molecule, the “biotin-DEVDamk staining (activation of thymic caspase) in FTOC sections” value [8] was “widespread biotin-DEVDamk staining throughout the cortex”.
